Structures are written as SMILES.

A short description of experiment [1]: Selectivity index of EC50 and CC50. The class given is functional.
Experiment [2] concerns MT4. The experiment can be described thus: The compound was tested for its cytotoxic activity against HIV-1 replication in MT-4 cells, (50% cytotoxic concentration). The class given is functional, Homo sapiens. Further details: unit not given here; call rule not given here.
Experiment [3] relates to MT4. The experiment can be described thus: The compound was tested for its inhibitory activity against HIV-1 replication in MT-4 cells(50% antiviral effective concentration); IA: inactive. The class given is functional, cell-based, Homo sapiens.

Compound `[Cl-].c1ccc(CNCCCCCN2CCCN(CCCCCNCc3ccccc3)CC[N+](CCCCCNCc3ccccc3)(CCCCCNCc3ccccc3)CCCN(CCCCCNCc3ccccc3)CC2)cc1` gave an SI in experiment [1] of 50. The compound further displayed a CC50 with MT4 [2] of 5. On to `c1ccc(CNCCCCCN2CCCN(CCCCCNCc3ccccc3)CCCN(CCCCCNCc3ccccc3)CCN(CCCCCNCc3ccccc3)CCC2)cc1`, for which the CC50 in the experiment on MT4 [2] is on record as 1. Regarding `CC(C)(C)OC(=O)N(CCCCCN1CCCN(CCCCCN(Cc2ccccc2)C(=O)OC(C)(C)C)CCCN(CCCCCN(Cc2ccccc2)C(=O)OC(C)(C)C)CCN(CCCCCN(Cc2ccccc2)C(=O)OC(C)(C)C)CCC1)Cc1ccccc1`, the SI in experiment [1] was over 5. In addition, the CC50 in the experiment on MT4 [2] is over 50.

`CC(C)(C)OC(=O)N(CCCCCN1CCCN(CCCCCN(Cc2ccccc2)C(=O)OC(C)(C)C)CCN(CCCCCN(Cc2ccccc2)C(=O)OC(C)(C)C)CCC[N+](CCCCCN(Cc2ccccc2)C(=O)OC(C)(C)C)(CCCCCN(Cc2ccccc2)C(=O)OC(C)(C)C)CCC1)Cc1ccccc1.Cc1ccc(S(=O)(=O)[O-])cc1`: the EC50 result with MT4 [3] is reported as “Not Active”. In addition, in the experiment on MT4 [2], the CC50 amounted to 10. For the compound `c1ccc(CNCCCCCN2CCCN(CCCCCNCc3ccccc3)CCN(CCCCCNCc3ccccc3)CCCN(CCCCCNCc3ccccc3)CC2)cc1`, the SI in experiment [1] turned out to be 10. Besides, the CC50 with MT4 [2] amounted to 10. In the case of `[Cl-].c1ccc(CNCCCCCN2CCCN(CCCCCNCc3ccccc3)CCN(CCCCCNCc3ccccc3)CCC[N+](CCCCCNCc3ccccc3)(CCCCCNCc3ccccc3)CCC2)cc1`, the EC50 entry in the experiment with MT4 [3] is listed as “Not Active”. In the experiment on MT4 [2], the CC50 is 10.

Turning to `CC(C)(C)OC(=O)N(CCCCCN1CCCN(CCCCCN(Cc2ccccc2)C(=O)OC(C)(C)C)CCN(CCCCCN(Cc2ccccc2)C(=O)OC(C)(C)C)CCCN(CCCCCN(Cc2ccccc2)C(=O)OC(C)(C)C)CC1)Cc1ccccc1`, the SI in experiment [1] is over 10. The CC50 with MT4 [2] is listed as over 10. On the same counts, the results for `CC(C)(C)OC(=O)N(CCCCCN1CCCN(CCCCCN(Cc2ccccc2)C(=O)OC(C)(C)C)CC[N+](CCCCCN(Cc2ccccc2)C(=O)OC(C)(C)C)(CCCCCN(Cc2ccccc2)C(=O)OC(C)(C)C)CCCN(CCCCCN(Cc2ccccc2)C(=O)OC(C)(C)C)CC1)Cc1ccccc1.Cc1ccc(S(=O)(=O)[O-])cc1` are 10 and 50.

Consider `C1CNCCNCCCN(CCCN2CCCNCCNCCCNCC2)CCNC1`, for which, in experiment [1], the SI is over 100. The CC50 in the experiment on MT4 [2] is over 100.

These data come from ChEMBL document CHEMBL1159172, “Modelisation, Synthesis and Anti-HIV activities of N,N,N,N,N-pentakistetraazamacrocycles salts derivatives” (Bioorg Med Chem Lett, 1997).
